Data published in patent publication US11583555B2, “Genetic re-engineering of immune cells to improve metabolic fitness for immunotherapy” (University of Pittsburgh—Of the Commonwealth System of …, priority 2016, dated 2023).

Experiments:
Type in all cases: in vivo
[1] = test system: Akt; assay: Akt inhibitor treatment of B16-bearing mice, PGC1α levels and mitochondrial mass of CD8^+ T cells; settings: short-term treatment (72 h)
Experimental: FIGS. 11A-11H. Intratumoral T cell mitochondrial biogenesis is repressed by chronic Akt-mediated repression of PGC1α (A) Flow cytogram (left) and tabulated data (right) of PGC1α intracellular staining in CD8^+ T cells isolated from nondraining or draining LNs or TIL preparations from B16 or MC38 bearing mice. Shaded histogram indicates isotype control. (B) Flow cytogram of PGC1α expression in CTV-labeled, naïve OT-I T cells adoptively transferred into B16^OVA bearing mice for 72 h. Tabulation for multiple experiments is to the right. (C) Flow cytogram of cytokine production of congenically mismitached WT OT-I T cells transferred into B16^OVA-bearing or VV^OVA-infected mice for 96 h, then restimulated with SIINFEKL peptide. (D) Representative and tabulated phospho-Akt (S473) and phospho-Foxo1 (T24)/3a(T32) staining of the indicated cell populations in mice bearing 14-day B16 tumors. MFI is reported. (E) Representative flow cytogram and tabulated data indicating PGC1α staining in pAkt low or high cells. (F) MFI of pAkt staining in naïve OT-I T cells, or OT-I T cells transferred for 3 or 6 days into a B16^OVA-bearing or VV^OVA infected mouse. […] Results are representative of 5 (A,B, D) 3 (C, E, G, H) or 2 (F) independent experiments. *, p<0.05, **p<0.01, ***p<0.001 by unpaired t-test (A, F, G, H) or paired t-test (D, E, G, H). ***p<0.001 by two-way ANOVA. Error bars indicate s.e.m. […]

[2] = test system: tumor infiltrating T cells; assay: m-divi-1 treatment of tumor-bearing mice after OT-I adoptive transfer, mitochondrial staining; settings: tumor-bearing mice treated 24 h after adoptive transfer
Experimental: FIGS. 5A-5E. T cell mitochondrial dysfunction is induced upon entry into the tumor microenvironment. (A) Representative flow cytogram and tabulated data of LN and TIL of naïve, CTV-labeled, OT-I (Thy 1.1^+) CD8^+ T cells transferred into B16^OVA-bearing mice (5-7 mm tumors), or the spleens of the same progenitor cells transferred into B6 mice infected with 1×10^6 PFU VV^OVA for 72 h. Cells were stained with MitoTracker Deep Red FM. (B) As in A, but with the mitochondrial membrane potential dye TMRE. (C) As in A, but with the cellular ROS indicator DCFDA. (D) As in A, but cells were permeabilized and stained intracellularly for LC3B. (E) Representative data from experiments as in A, but some mice received mitophagy inhibitor m-divi-1. Results represent the mean of three or four independent experiments, with n=7-9 mice per group. **p<0.01, ***p<0.001, ***p<0.0001 by two-way ANOVA. Error bars indicate s.e.m.
Single-cell metabolic capacity was assayed by flow cytometry. Specifically, 2-NBD-glucose (Cayman Chemical) and MitoTracker FM dyes (ThermoFisher) were utilized to assay the propensity of cells to take up glucose or generate intermediates via their mitochondria. […]
As mitochondrial depolarization can lead to autophagy, it was determined whether mitophagy may be mediating the loss of mitochondria in tumor-infiltrating T cells.

[3] = test system: tumor-infiltrating Treg cells; assay: Treg depletion with diphtheria toxin in B16-bearing Foxp3^DTR.GFP mice; settings: 3 days diphtheria toxin

O=c1[nH]c2ccccc2n1C1CCN(Cc2ccc(-c3nc4cc5[nH]cnc5cc4nc3-c3ccccc3)cc2)CC1 [Akt inhibitor, Akt inhibitor VIII]
PGC1α and mitochondrial sufficiency (metabolically suppressive phenotype) [1]: partial rescue of the metabolically suppressive phenotype

COc1cc(-n2c(=S)[nH]c3ccccc3c2=O)c(Cl)cc1Cl [m-divi-1]
mitochondrial staining in tumor infiltrating T cells [2]: failed to improve mitochondrial staining

diphtheria toxin
CD8^+ T cell MitoTracker FM staining [3]: no significant increases in CD8^+ T cell MitoTracker FM staining
depletion of tumor-infiltrating Treg cells [3]: near complete depletion of tumor-infiltrating Treg cells
